Among the data in ChEMBL document CHEMBL1154731, “Theoretical and structural analysis of the active site of the transcriptional regulators LasR and TraR, using molecular docking methodology for identifying potential analogues of acyl homoserine lactones (AHLs) with anti-quorum sensing activity” (Eur J Med Chem, 2010) are IC50 values, retold here.

The target of test [1] is T1, Transcriptional activator protein LasR (Pseudomonas aeruginosa (strain ATCC 15692 / PAO1 / 1C / PRS 101 / LMG12228), UniProt P25084).
T1 sequence (P25084 whole entry): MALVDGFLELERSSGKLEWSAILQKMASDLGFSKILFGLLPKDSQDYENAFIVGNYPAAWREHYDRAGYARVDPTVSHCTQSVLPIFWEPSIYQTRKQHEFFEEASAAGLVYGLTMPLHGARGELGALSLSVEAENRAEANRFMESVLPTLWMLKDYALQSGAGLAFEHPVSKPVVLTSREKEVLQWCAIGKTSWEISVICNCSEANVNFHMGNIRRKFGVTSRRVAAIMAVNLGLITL
The experiment in a line: Inhibition of Pseudomonas aeruginosa LasR.

The target in test [2] is T2, Transcriptional activator protein TraR (Agrobacterium tumefaciens, UniProt P33905).
T2 sequence (P33905 whole entry): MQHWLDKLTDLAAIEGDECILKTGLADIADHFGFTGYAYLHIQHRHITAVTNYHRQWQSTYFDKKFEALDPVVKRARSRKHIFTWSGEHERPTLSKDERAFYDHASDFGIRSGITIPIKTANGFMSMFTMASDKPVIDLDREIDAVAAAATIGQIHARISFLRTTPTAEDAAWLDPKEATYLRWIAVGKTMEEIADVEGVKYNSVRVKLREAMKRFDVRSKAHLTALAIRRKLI
The experiment in a line: Inhibition of Agrobacterium tumefaciens TraR.

What is called IC50 is the concentration that gives 50% inhibition. Lower therefore signals inhibition by little substance. As for `O=C(CC(=O)N[C@H]1CCOC1=O)Cc1ccccc1`, the IC50 in test [1] came out at 53.6 µM; in test [2] it was 0.5 µM.
Regarding `O=C(CCCc1c[nH]c2ccccc12)N[C@H]1CCOC1=O`, the IC50 stood at 14.8 µM in test [1] and 1.1 µM in test [2].
Take `O=C(CC1C=CCC1)N[C@H]1CCOC1=O` (stereo partly drawn): the values for the IC50 in test [1] and in test [2] were 33.1 µM and 1 µM, respectively.
For the compound `CCCCCCC(=O)N[C@H]1CCOC1=O`, the IC50 in test [1] stood at 51.5 µM; in test [2] it was 0.13 µM.
